Results: US8440710B2, “HSL inhibitors useful in the treatment of diabetes” (Hoffmann-La Roche Inc., priority 2009, dated 2013)

Target: T1, human HSL (Homo sapiens, UniProt Q05469)
T1 construct: generate a full length human HSL ORF with a 3′-His6 tag; made in house; host or cells: High 5 insect cells (baculovirus, pFast-BAC)
T1 sequence (Q05469 1-1076): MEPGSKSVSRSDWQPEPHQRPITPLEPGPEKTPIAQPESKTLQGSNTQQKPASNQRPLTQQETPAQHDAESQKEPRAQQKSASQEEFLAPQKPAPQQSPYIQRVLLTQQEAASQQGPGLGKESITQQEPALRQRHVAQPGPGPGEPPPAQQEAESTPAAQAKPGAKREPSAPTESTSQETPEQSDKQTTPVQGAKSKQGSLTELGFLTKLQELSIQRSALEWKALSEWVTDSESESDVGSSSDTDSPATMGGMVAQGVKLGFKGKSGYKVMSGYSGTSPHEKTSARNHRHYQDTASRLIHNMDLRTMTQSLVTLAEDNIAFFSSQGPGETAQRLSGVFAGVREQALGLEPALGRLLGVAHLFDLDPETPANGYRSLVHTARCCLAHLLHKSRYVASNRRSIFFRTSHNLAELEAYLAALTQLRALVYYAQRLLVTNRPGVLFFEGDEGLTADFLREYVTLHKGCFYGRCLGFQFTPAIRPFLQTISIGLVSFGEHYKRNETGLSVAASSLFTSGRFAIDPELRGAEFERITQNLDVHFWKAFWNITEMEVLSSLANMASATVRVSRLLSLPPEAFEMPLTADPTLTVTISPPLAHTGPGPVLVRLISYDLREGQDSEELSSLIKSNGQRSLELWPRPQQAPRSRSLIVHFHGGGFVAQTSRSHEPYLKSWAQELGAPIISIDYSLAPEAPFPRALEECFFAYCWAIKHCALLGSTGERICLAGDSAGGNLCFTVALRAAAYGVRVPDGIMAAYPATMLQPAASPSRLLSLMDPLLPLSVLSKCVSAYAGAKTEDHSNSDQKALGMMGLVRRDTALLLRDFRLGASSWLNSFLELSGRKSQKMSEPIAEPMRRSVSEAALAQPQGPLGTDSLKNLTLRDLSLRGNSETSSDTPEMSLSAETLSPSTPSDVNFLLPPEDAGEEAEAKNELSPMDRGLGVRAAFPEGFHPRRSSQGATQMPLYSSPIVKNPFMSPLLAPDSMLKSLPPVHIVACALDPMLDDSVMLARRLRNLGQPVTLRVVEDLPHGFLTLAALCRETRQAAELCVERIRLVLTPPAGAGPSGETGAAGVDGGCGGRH
Assay: Human Hormone-Sensitive Lipase (HSL) enzyme inhibition assay (colorimetric, DMPT substrate)
Type: biochemical
Conditions: human full length HSL-His6, 2,3-dimercapto-1-propanol tributyrate substrate, 37° C. 20 minutes, absorbance at 405 nm; read-out: HSL hum IC50
In short: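 Full-length human HSL with C-terminal His6, expressed in baculovirus-infected High 5 cells and Ni-NTA purified, was added (15 ug/ml stock) to 1.5 mM DMPT in 100 mM MOPS pH 7.2, 0.2 mg/ml fatty acid-free BSA containing compound. After 20 min at 37 °C, DTNB with SDS/Triton X-100 was added; A405 read after 15 min at RT.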

| Compound | IC50 |
| --- | --- |
| C[C@@H](Oc1ccc(N2CC[C@]3(CC[C@@](O)(COCc4ccccc4)CC3)C2=O)cc1)C(F)(F)F [Example 144, (5α,8α)-8-(Benzyloxymethyl)-8-hydroxy-2-[4-((R)-2,2,2-trifluoro-1-methyl-ethoxy)-phenyl]-2-aza-spiro[4.5]decan-1-one] | 10 nM |
| C[C@@H](Oc1ccc(N2CC[C@]3(CC[C@@](O)(CO)CC3)C2=O)cc1)C(F)(F)F [Example 145, (5α,8α)-8-Hydroxy-8-(hydroxymethyl)-2-[4-((R)-2,2,2-trifluoro-1-methyl-ethoxy)-phenyl]-2-aza-spiro[4.5]decan-1-one] | 390 nM |
| COC[C@]1(O)CC[C@]2(CCN(c3ccc(O[C@@H](C)C(F)(F)F)cc3)C2=O)CC1 [Example 146, (5α,8α)-8-Hydroxy-8-methoxymethyl-2-[4-((S)-2,2,2-trifluoro-1-methyl-ethoxy)-phenyl]-2-aza-spiro[4.5]decan-1-one] | 20 nM |
| COC[C@]1(O)CC[C@]2(CCN(c3ccc(O[C@H](C)C(F)(F)F)cc3)C2=O)CC1 [Example 147, (5α,8α)-8-Hydroxy-8-(methoxymethyl)-2-[4-((R)-2,2,2-trifluoro-1-methyl-ethoxy)-phenyl]-2-aza-spiro[4.5]decan-1-one] | 30 nM |
| CC(C)[C@]1(O)CC[C@]2(CCN(c3ccc(O[C@@H](C)C(F)(F)F)nc3)C2=O)CC1 [Example 148, (5α,8α)-8-Hydroxy-8-isopropyl-2-[6-((S)-2,2,2-trifluoro-1-methyl-ethoxy)pyridin-3-yl]-2-aza-spiro[4.5]decan-1-one] | 20 nM |
| CC(C)[C@]1(O)CC[C@@]2(CCN(c3ccc(O[C@@H](C)C(F)(F)F)nc3)C2=O)CC1 [Example 149, (5α,8β)-8-Hydroxy-8-isopropyl-2-[6-((S)-2,2,2-trifluoro-1-methyl-ethoxy)pyridin-3-yl]-2-aza-spiro[4.5]decan-1-one] | 1650 nM |
| CC(C)[C@]1(O)CC[C@]2(CCN(c3ccc(O[C@H](C)C(F)(F)F)nc3)C2=O)CC1 [Example 150, (5α,8α)-8-Hydroxy-8-isopropyl-2-[6-((R)-2,2,2-trifluoro-1-methyl-ethoxy)-pyridin-3-yl]-2-aza-spiro[4.5]decan-1-one] | 20 nM |
| CC(C)[C@]1(O)CC[C@@]2(CCN(c3ccc(O[C@H](C)C(F)(F)F)nc3)C2=O)CC1 [Example 151, (5α,8β)-8-Hydroxy-8-isopropyl-2-[6-((R)-2,2,2-trifluoro-1-methyl-ethoxy)pyridin-3-yl]-2-aza-spiro[4.5]decan-1-one] | 1850 nM |
| COC[C@]1(O)CC[C@]2(CCN(c3ccc(O[C@H](C)C(F)(F)F)nc3)C2=O)CC1 [Example 152, (5α,8α)-8-Hydroxy-8-methoxymethyl-2-[6-((R)-2,2,2-trifluoro-1-methyl-ethoxy)-pyridin-3-yl]-2-aza-spiro[4.5]decan-1-one] | 50 nM |
| COC[C@]1(O)CC[C@]2(CCN(c3ccc(O[C@@H](C)C(F)(F)F)nc3)C2=O)CC1 [Example 153, (5α,8α)-8-Hydroxy-8-methoxymethyl-2-[6-((S)-2,2,2-trifluoro-1-methyl-ethoxy)-pyridin-3-yl]-2-aza-spiro[4.5]decan-1-one] | 50 nM |
| COC[C@]1(O)CC[C@]2(CCN(c3ccc(CC(F)(F)F)cc3)C2=O)CC1 [Example 154, (5α,8α)-8-Hydroxy-8-methoxymethyl-2-[4-(2,2,2-trifluoro-ethyl)-phenyl]-2-aza-spiro[4.5]decan-1-one] | 30 nM |
| O=C1N(c2ccc([C@@H](O)C(F)(F)F)cc2)CC[C@]12CC[C@@](O)(COCC(F)(F)F)CC2 [Example 155, (5α,8α)-8-Hydroxy-8-(2,2,2-trifluoro-ethoxymethyl)-2-[4-((R)-2,2,2-trifluoro-1-hydroxy-ethyl)-phenyl]-2-aza-spiro[4.5]decan-1-one] | 9 nM |
| CN(C)C(=O)C[C@]1(O)CC[C@]2(CCN(c3ccc(OC(F)(F)F)cc3)C2=O)CC1 [Example 156, 2-[(5α,8α)-8-Hydroxy-1-oxo-2-(4-trifluoromethoxy-phenyl)-2-aza-spiro[4.5]dec-8-yl]-N,N-dimethyl-acetamide] | 60 nM |
| CN(C)C(=O)C[C@]1(O)CC[C@]2(CCN(c3ccc(OCC(F)(F)F)cc3)C2=O)CC1 [Example 157, 2-((5α,8α)-8-Hydroxy-1-oxo-2-(4-(2,2,2-trifluoroethoxy)phenyl)-2-aza-spiro[4.5]decan-8-yl)-N,N-dimethylacetamide] | 250 nM |
| CNC(=O)C[C@]1(O)CC[C@]2(CCN(c3ccc(OCC(F)(F)F)cc3)C2=O)CC1 [Example 158, 2-((5α,8α)-8-Hydroxy-1-oxo-2-(4-(2,2,2-trifluoroethoxy)phenyl)-2-aza-spiro[4.5]decan-8-yl)-N-methylacetamide] | 340 nM |
| CC(C)OC[C@]1(O)CC[C@]2(CCN(c3ccc([C@@H](O)C(F)(F)F)cc3)C2=O)CC1 [Example 159, (5α,8α)-8-Hydroxy-8-isopropoxymethyl-2-[4-((R)-2,2,2-trifluoro-1-hydroxy-ethyl)-phenyl]-2-aza-spiro[4.5]decan-1-one] | 20 nM |
| O=C1N(c2ccc([C@@H](O)C(F)(F)F)cc2)CC[C@]12CC[C@@](O)(COCC(F)F)CC2 [Example 160, (5α,8α)-8-(2,2-Difluoro-ethoxymethyl)-8-hydroxy-2-[4-((R)-2,2,2-trifluoro-1-hydroxy-ethyl)-phenyl]-2-aza-spiro[4.5]decan-1-one] | 300 nM |
| CCc1ccc(CCN2CC[C@]3(CC[C@@](O)(C(C)C)CC3)C2=O)cc1 [Example 161, (5α,8α)-2-(4-Ethylphenethyl)-8-hydroxy-8-isopropyl-2-aza-spiro[4.5]decan-1-one] | 10 nM |
| CCC[C@]1(O)CC[C@@]2(CCN(c3ccc(OC(C)C(F)(F)F)cc3)C2=O)CC1 (stereo partly drawn) [Example 163, (5α,8β)-8-Hydroxy-8-propyl-2-[4-(2,2,2-trifluoro-1-methyl-ethoxy)-phenyl]-2-aza-spiro[4.5]decan-1-one] | 790 nM |
| CCC[C@]1(O)CC[C@]2(CCN(c3ccc(OC(C)C(F)(F)F)cc3)C2=O)CC1 (stereo partly drawn) [Example 164, (5α,8α)-8-Hydroxy-8-propyl-2-[4-(2,2,2-trifluoro-1-methyl-ethoxy)-phenyl]-2-aza-spiro[4.5]decan-1-one] | 20 nM |
| CCC[C@]1(O)CC[C@]2(CCN(c3ccc(O[C@@H](C)C(F)(F)F)cc3)C2=O)CC1 [Example 164a, (5α,8α)-8-Hydroxy-8-propyl-2-[4-((S)-2,2,2-trifluoro-1-methyl-ethoxy)-phenyl]-2-aza-spiro[4.5]decan-1-one] | 20 nM |
| CCC[C@]1(O)CC[C@]2(CCN(c3ccc(O[C@H](C)C(F)(F)F)cc3)C2=O)CC1 [Example 164b, (5α,8α)-8-Hydroxy-8-propyl-2-[4-((R)-2,2,2-trifluoro-1-methyl-ethoxy)-phenyl]-2-aza-spiro[4.5]decan-1-one] | 20 nM |
| CC[C@]1(O)CC[C@]2(CCN(c3ccc(OC(C)C(F)(F)F)cc3)C2=O)CC1 (stereo partly drawn) [Example 165, (5α,8α)-8-Ethyl-8-hydroxy-2-[4-(2,2,2-trifluoro-1-methyl-ethoxy)-phenyl]-2-aza-spiro[4.5]decan-1-one] | 20 nM |
| CC[C@]1(O)CC[C@]2(CCN(c3ccc(O[C@@H](C)C(F)(F)F)cc3)C2=O)CC1 [Example 165a, (5α,8α)-8-Ethyl-8-hydroxy-2-[4-((S)-2,2,2-trifluoro-1-methyl-ethoxy)-phenyl]-2-aza-spiro[4.5]decan-1-one] | 20 nM |
| CC[C@]1(O)CC[C@]2(CCN(c3ccc(O[C@H](C)C(F)(F)F)cc3)C2=O)CC1 [Example 165b, (5α,8α)-8-Ethyl-8-hydroxy-2-[4-((R)-2,2,2-trifluoro-1-methyl-ethoxy)-phenyl]-2-aza-spiro[4.5]decan-1-one] | 30 nM |
| O=C1N(c2ccc(OCC(F)(F)F)nc2)CC[C@]12CC[C@@](O)(CCC(F)(F)F)CC2 [Example 166, (5α,8α)-8-Hydroxy-2-[6-(2,2,2-trifluoro-ethoxy)-pyridin-3-yl]-8-(3,3,3-trifluoro-propyl)-2-aza-spiro[4.5]decan-1-one] | 40 nM |
| CCC[C@]1(O)CC[C@]2(CCN(c3ccc(OCC(F)(F)F)nc3)C2=O)CC1 [Example 167, (5α,8α)-8-Hydroxy-8-propyl-2-[6-(2,2,2-trifluoro-ethoxy)-pyridin-3-yl]-2-aza-spiro[4.5]decan-1-one] | 40 nM |
